Experimental findings from patent publication US20250163043A1 (TRANSTHERA SCIENCES (NANJING), INC., priority 2021, published 2025) are described below.

Assay type in all cases: biochemical
The target of one assay is CDK9/CycT1 (Homo sapiens, UniProt P50750). Nature of the assay: ADP-Glo kinase assay on CDK enzymatic activity, CDK9/CycT1. As to conditions: 10 concentrations from 10 μM, 4-fold, 60 min room temperature. An outline of the steps: (§1)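 Steps: compound (10 μM top, 4-fold series) plus kinase, 10 min RT; add substrate/ATP mix, 60 min RT; ADP-Glo reagent 40 min; detection reagent 40 min; read luminescence. Inhibition referenced to AZD4573 (1 μM) and DMSO vehicle; IC50 by nonlinear fit.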
Chain of CDK9/CycT1 (P50750 whole entry): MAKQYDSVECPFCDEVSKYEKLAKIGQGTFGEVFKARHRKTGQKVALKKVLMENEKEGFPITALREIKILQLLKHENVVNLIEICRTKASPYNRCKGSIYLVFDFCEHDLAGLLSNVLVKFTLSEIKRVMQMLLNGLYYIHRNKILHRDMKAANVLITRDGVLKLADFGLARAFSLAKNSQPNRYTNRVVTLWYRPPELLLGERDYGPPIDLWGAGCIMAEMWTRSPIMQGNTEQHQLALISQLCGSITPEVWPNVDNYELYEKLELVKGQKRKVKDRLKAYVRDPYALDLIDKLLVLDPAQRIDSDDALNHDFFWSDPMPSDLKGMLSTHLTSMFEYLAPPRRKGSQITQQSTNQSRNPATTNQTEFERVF
Chain of CDK9/CycT1 (O60563 whole entry partner): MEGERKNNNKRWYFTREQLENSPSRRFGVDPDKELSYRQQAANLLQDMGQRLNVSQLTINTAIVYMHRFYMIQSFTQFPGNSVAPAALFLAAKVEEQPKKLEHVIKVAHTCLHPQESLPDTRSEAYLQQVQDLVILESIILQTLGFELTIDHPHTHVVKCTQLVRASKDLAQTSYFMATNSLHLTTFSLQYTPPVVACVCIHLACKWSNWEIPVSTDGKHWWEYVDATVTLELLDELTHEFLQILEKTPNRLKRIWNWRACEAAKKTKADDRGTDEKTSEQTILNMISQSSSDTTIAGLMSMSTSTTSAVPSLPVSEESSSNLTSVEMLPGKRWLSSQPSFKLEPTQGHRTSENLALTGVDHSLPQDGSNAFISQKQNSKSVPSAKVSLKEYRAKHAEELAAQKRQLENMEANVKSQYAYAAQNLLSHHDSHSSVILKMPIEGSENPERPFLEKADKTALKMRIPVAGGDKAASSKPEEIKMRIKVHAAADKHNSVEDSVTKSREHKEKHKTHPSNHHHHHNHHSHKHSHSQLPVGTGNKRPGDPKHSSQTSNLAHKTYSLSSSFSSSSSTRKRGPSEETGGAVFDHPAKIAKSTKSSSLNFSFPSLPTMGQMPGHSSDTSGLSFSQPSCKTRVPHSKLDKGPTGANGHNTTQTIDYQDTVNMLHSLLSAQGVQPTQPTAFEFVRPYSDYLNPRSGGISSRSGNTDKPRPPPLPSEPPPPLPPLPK
(ADP-Glo turns the ADP formed in a reaction into a luminescent signal.)

The target in the next assay is CDK1/CycE1 (Homo sapiens, UniProt P06493). Nature of the assay: ADP-Glo kinase assay on CDK enzymatic activity, CDK1/CycE1. As to conditions: ADP-Glo; 10 concentrations from 10 μM, 4-fold; 60 min room temperature; read-out: CDK1/CycE1/nM (IC50). An outline of the steps: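 Compounds in 10-point 4-fold dilutions from 10 μM final, preincubated 10 min with kinase, then substrate/ATP added; 60 min reaction at room temperature. ADP-Glo luminescence read.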
Chain of CDK1/CycE1 (P06493 whole entry, species assumed): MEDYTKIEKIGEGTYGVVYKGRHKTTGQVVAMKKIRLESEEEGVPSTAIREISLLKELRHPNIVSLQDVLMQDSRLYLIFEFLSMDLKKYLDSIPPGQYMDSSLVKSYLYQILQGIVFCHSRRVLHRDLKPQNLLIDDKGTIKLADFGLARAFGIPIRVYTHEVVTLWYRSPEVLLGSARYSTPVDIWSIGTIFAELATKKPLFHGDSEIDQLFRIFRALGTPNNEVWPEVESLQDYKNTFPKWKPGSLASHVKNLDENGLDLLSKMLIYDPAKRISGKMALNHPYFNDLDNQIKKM
Chain of CDK1/CycE1 (P24864 whole entry partner, species assumed): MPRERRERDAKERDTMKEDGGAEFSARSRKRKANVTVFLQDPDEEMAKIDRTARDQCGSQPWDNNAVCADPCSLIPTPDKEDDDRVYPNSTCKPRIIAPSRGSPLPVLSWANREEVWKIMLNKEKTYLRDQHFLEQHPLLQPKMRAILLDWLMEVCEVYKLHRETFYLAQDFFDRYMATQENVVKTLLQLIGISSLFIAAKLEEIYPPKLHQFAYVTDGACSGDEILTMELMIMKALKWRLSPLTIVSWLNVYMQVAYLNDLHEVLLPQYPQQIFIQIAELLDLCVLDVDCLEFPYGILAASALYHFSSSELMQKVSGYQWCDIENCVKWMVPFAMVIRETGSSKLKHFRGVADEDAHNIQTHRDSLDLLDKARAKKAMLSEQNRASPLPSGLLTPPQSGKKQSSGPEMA

The target of a further assay is CDK2/CycA2 (Homo sapiens, UniProt P24941). Nature of the assay: ADP-Glo kinase assay on CDK enzymatic activity, CDK2/CycA2. Conditions: 10 concentrations from 10 μM, 4-fold, 60 min room temperature. An outline of the steps:
as §1

Another assay addresses CDK3/CycE1 (Homo sapiens, UniProt Q00526). In words: ADP-Glo kinase assay on CDK enzymatic activity, CDK3/CycE1. As to conditions: 10 concentrations from 10 μM, 4-fold, 60 min room temperature. An excerpt:
(§2) Test samples: the compounds of the present invention, having structures shown above.
(§3) ADP-Glo Kinase Assay (ADP-Glo kinase kit), DMSO (dimethyl sulfoxide), CDK9/CycT1 (cyclin-dependent kinase 9/cyclin T1), CDK tide (cyclin-dependent kinase substrate peptide fragments), CDK1/CycE1 (cyclin-dependent kinase 1/cyclin E1), CDK2/CycA2 (cyclin-dependent kinase 2/cyclin A2), CDK3/CycE1 (cyclin-dependent kinase 3/cyclin E1), CDK4/CycD3 (cyclin-dependent kinase 4/cyclin D3), CDK5/p25NCK (cyclin-dependent kinase 5/p25), and AZD 4573.
(§4) A 384-well white plate, a 96-well plate, a microplate oscillator, a centrifuge, and a microplate reader.
(§5) The compounds were dissolved in DMSO and diluted 4-fold in the 96-well plate to obtain stock solutions with 10 concentration gradients, and added into a 384-well plate system to obtain a series of 10 concentration gradients of compound solutions with final concentrations of 10 μM starting and 4-fold gradient decreasing. 1 μM AZD4573 was used as compound positive control (PC) and 0.5% DMSO as solvent vehicle control (VC), ten duplicated wells each for PC and VC.
(§6) 1 μL of compound solution and 2 μL of 2× kinase solution were transferred to each well, and the plate was centrifuged at 1000 g for 30 s and left at room temperature for 10 min. A mixture of 2× substrate and ATP was prepared in 1× kinase buffer. The reaction was started after adding 2 μL of substrate and ATP into the plate. The plate was centrifuged at 1000 g for 30 s. The assay plate was closed and left at room temperature for 60 min. The reaction system was added with 4 μL of ADP Glo reagent, centrifuged at 1000 rpm for 1 min, and incubated at room temperature for 40 min. The reaction system was added with 8 μL of kinase assay reagent, centrifuged at 1000 rpm for 1 min and incubated at room temperature for 40 min. The […] was read on Biotek.
(§7) The inhibition rate was calculated according to the following formula: […]
(§8) Lumcmpd: compound fluorescence reading; Lumpositive: average value of the fluorescence reading of positive compound control; Lumvehicle: average value of the fluorescence reading of solvent vehicle control.
(§9) IC50 values were fitted using GraphPad 7.0 based on inhibition rates of compounds at different concentrations.

A further assay deals with CDK5/p25NCK (Homo sapiens, UniProt Q00535). In words: ADP-Glo kinase assay on CDK enzymatic activity, CDK5/p25NCK. Conditions: 10 concentrations from 10 μM, 4-fold, 60 min room temperature.
Chain of CDK5/p25NCK (Q00535 whole entry, species assumed): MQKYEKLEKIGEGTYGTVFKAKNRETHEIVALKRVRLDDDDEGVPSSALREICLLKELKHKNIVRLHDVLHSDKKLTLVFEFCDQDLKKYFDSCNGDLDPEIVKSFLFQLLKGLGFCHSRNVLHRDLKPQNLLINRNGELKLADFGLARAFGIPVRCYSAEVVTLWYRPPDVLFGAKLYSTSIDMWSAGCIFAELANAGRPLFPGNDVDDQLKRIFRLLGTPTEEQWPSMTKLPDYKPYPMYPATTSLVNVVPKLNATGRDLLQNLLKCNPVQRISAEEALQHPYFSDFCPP
Chain of CDK5/p25NCK (Q15078 99-307 partner limits assumed, species assumed): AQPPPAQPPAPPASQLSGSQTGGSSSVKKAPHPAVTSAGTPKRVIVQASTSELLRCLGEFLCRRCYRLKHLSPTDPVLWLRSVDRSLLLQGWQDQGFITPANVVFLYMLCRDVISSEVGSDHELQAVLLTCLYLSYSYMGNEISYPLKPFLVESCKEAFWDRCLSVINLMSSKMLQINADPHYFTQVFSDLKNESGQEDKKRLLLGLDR
From the text: as §2, §3, §4, §5, §6, §7, §8, §9

Chain of CDK3/CycE1 (Q00526 whole entry, species assumed): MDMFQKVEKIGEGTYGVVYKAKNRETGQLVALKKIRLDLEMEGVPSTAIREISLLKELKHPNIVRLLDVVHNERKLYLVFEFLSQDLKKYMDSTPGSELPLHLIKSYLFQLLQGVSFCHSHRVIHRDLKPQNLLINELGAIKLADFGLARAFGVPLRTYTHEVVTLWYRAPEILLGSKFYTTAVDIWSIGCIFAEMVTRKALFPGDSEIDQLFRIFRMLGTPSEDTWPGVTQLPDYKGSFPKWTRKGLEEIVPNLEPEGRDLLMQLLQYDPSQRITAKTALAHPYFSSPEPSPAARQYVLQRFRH
Chain of CDK3/CycE1 (P24864 whole entry partner, species assumed): as the sequence (P24864 whole entry partner, species assumed) above

Turning to `CC(C)Nc1nc(C#N)cc2cnc(N[C@H]3CCCOC3)nc12` [Compound 116, (S)-8-(isopropylamino)-2-((tetrahydro-2H-pyran-3-yl)amino)pyrido[3,4-d]pyrimidine-6-carbonitrile], the IC50 stood at 2 nM against CDK9/CycT1; 114 nM on CDK1/CycE1; 29 nM against CDK2/CycA2; 92 nM against CDK3/CycE1; 63 nM against CDK5/p25NCK.

Turning to `CC(C)Nc1nc(C#N)cc2cnc(N[C@H]3CC[C@H](O)C3)nc12` [Compound 122, 2-(((1S,3S)-3-hydroxycyclopentyl)amino)-8-(isopropylamino)pyrido[3,4-d]pyrimidine-6-carbonitrile], the IC50 at CDK9/CycT1 was 1 nM; on CDK1/CycE1 it was 3 nM; at CDK2/CycA2 it was 6 nM; against CDK3/CycE1, 8 nM; on CDK5/p25NCK it was 17 nM.

Turning to `CC(C)Nc1nc(C#N)cc2cnc(N[C@H]3C[C@@H](N)C3)nc12` [Compound 126, 2-(((1s,3s)-3-aminocyclobutyl)amino)-8-(isopropylamino)pyrido[3,4-d]pyrimidine-6-carbonitrile], the IC50 was 2 nM against CDK9/CycT1; 95 nM on CDK1/CycE1; 181 nM at CDK2/CycA2; 287 nM at CDK3/CycE1; 238 nM at CDK5/p25NCK.

For `CC(C)Nc1nc(C#N)cc2cnc(N[C@H]3C[C@H](N)C3)nc12` [Compound 127, 2-(((1r,3r)-3-aminocyclobutyl)amino)-8-(isopropylamino)pyrido[3,4-d]pyrimidine-6-carbonitrile], the IC50 was 1 nM at CDK9/CycT1; 10 nM on CDK1/CycE1; 14 nM against CDK2/CycA2; 8 nM against CDK3/CycE1; 46 nM against CDK5/p25NCK.

Regarding `CC(C)Nc1nc(C#N)cc2cnc(NC34CC(N)(C3)C4)nc12` [Compound 128, 2-((3-aminobicyclo[1.1.1]pentan-1-yl)amino)-8-(isopropylamino)pyrido[3,4-d]pyrimidine-6-carbonitrile], the IC50 at CDK9/CycT1 is 2 nM; at CDK1/CycE1 it was 43 nM; on CDK2/CycA2, 54 nM; against CDK3/CycE1 it was 34 nM; against CDK5/p25NCK, 65 nM.

Turning to `CC(C)Nc1nc(C#N)cc2cnc(NC3CC4(CNC4)C3)nc12` [Compound 130, 2-((2-azaspiro[3.3]heptan-6-yl)amino)-8-(isopropylamino)pyrido[3,4-d]pyrimidine-6-carbonitrile], the IC50 at CDK9/CycT1 is 2 nM; on CDK1/CycE1 it was 25 nM; against CDK2/CycA2 it was 74 nM; on CDK3/CycE1, 32 nM; on CDK5/p25NCK, 447 nM.

On to `CC(C)Nc1nc(C#N)cc2cnc(N[C@H]3CCCNCC3)nc12` [Compound 131, (S)-2-(azepan-4-ylamino)-8-(isopropylamino)pyrido[3,4-d]pyrimidine-6-carbonitrile], for which the IC50 came to 6 nM on CDK9/CycT1; 678 nM on CDK1/CycE1; 388 nM against CDK2/CycA2; 629 nM against CDK3/CycE1; 1530 nM on CDK5/p25NCK.

With `CC(C)Nc1nc(C#N)cc2cnc(N[C@H]3CC[C@H](N)CC3)nc12` [Compound 136, 2-(((1r,4r)-4-aminocyclohexyl)amino)-8-(isopropylamino)pyrido[3,4-d]pyrimidine-6-carbonitrile], the IC50 is 2 nM against CDK9/CycT1; 315 nM at CDK1/CycE1; 13 nM against CDK2/CycA2; 27 nM on CDK3/CycE1; 116 nM at CDK5/p25NCK.

On to `CC(C)Nc1nc(C#N)cc2cnc(N[C@H]3CCCCNC3)cc12` [Compound 142, (S)-7-(azepan-3-ylamino)-1-(isopropylamino)-2,6-naphthyridine-3-carbonitrile], for which the IC50 on CDK9/CycT1 came to 2 nM; on CDK1/CycE1 it was 90 nM; on CDK2/CycA2, 600 nM; against CDK3/CycE1, 66 nM; against CDK5/p25NCK, 306 nM.

For `N#Cc1cc2cnc(N[C@H]3CCCNC3)cc2c(NC2CCC2)n1` [Compound 144, (S)-1-(cyclobutylamino)-7-(piperidin-3-ylamino)-2,6-naphthyridine-3-carbonitrile], the IC50 is 2 nM against CDK9/CycT1; 90 nM on CDK1/CycE1; 146 nM at CDK2/CycA2; 28 nM on CDK3/CycE1; 195 nM against CDK5/p25NCK.

Take `CC1(Nc2nc(C#N)cc3cnc(N[C@H]4CCCNC4)cc23)CC1` [Compound 148, (S)-1-((1-methylcyclopropyl)amino)-7-(piperidin-3-ylamino)-2,6-naphthyridine-3-carbonitrile]: the IC50 stood at 1 nM against CDK9/CycT1; 104 nM on CDK1/CycE1; 171 nM against CDK2/CycA2; 49 nM on CDK3/CycE1; 165 nM against CDK5/p25NCK.

On to `CC(C)(C)Nc1nc(C#N)cc2cnc(N[C@H]3CCCNC3)cc12` [Compound 149, (S)-1-(tert-butylamino)-7-(piperidin-3-ylamino)-2,6-naphthyridine-3-carbonitrile], for which the IC50 was 1 nM on CDK9/CycT1; 42 nM at CDK1/CycE1; 126 nM on CDK2/CycA2; 60 nM on CDK3/CycE1; 295 nM on CDK5/p25NCK.

As to `N#Cc1cc2cnc(N[C@H]3CCCNC3)cc2c(N[C@@H]2CCOC2)n1` [Compound 150, 7-(((S)-piperidin-3-yl)amino)-1-(((R)-tetrahydrofuran-3-yl)amino)-2,6-naphthyridine-3-carbonitrile], the IC50 was 2 nM against CDK9/CycT1; 608 nM on CDK1/CycE1; 450 nM at CDK2/CycA2; 281 nM on CDK3/CycE1; 1460 nM at CDK5/p25NCK.

With `N#Cc1cc2cnc(N[C@H]3CCCNC3)cc2c(N[C@H]2CCOC2)n1` [Compound 151, 7-(((S)-piperidin-3-yl)amino)-1-(((S)-tetrahydrofuran-3-yl)amino)-2,6-naphthyridine-3-carbonitrile], the IC50 against CDK9/CycT1 was determined as 8 nM; on CDK1/CycE1 it was 411 nM; at CDK2/CycA2, 1290 nM; against CDK3/CycE1, 832 nM; at CDK5/p25NCK, 4140 nM.

As to `CC(C)(C)Oc1nc(C#N)cc2cnc(N[C@H]3CCCNC3)cc12` [Compound 152, (S)-1-(tert-butoxy)-7-(piperidin-3-ylamino)-2,6-naphthyridine-3-carbonitrile], the IC50 was 2 nM against CDK9/CycT1; 110 nM on CDK1/CycE1; 267 nM against CDK2/CycA2; 124 nM against CDK3/CycE1; 1000 nM at CDK5/p25NCK.

In the case of `CC(C)Oc1nc(C#N)cc2cnc(N[C@H]3CCCNC3)cc12` [Compound 153, (S)-1-(isopropoxy)-7-(piperidin-3-ylamino)-2,6-naphthyridine-3-carbonitrile], the IC50 came out at 2 nM against CDK9/CycT1; 133 nM at CDK1/CycE1; 562 nM on CDK2/CycA2; 67 nM against CDK3/CycE1; 706 nM at CDK5/p25NCK.

`N#Cc1cc2cnc(N[C@H]3CCCNC3)cc2c(O[C@@H]2CCOC2)n1` [Compound 154, 7-(((S)-piperidin-3-yl)amino)-1-(((R)-tetrahydrofuran-3-yl)oxy)-2,6-naphthyridine-3-carbonitrile]: the IC50 at CDK9/CycT1 came to 5 nM; on CDK1/CycE1, 1020 nM; on CDK2/CycA2, 2320 nM; on CDK3/CycE1, 371 nM; on CDK5/p25NCK it was 3840 nM.

As to `N#Cc1cc2cnc(N[C@H]3CCCNC3)cc2c(NC2CC2)n1` [Compound 175, (S)-1-(cyclopropylamino)-7-(piperidin-3-ylamino)-2,6-naphthyridine-3-carbonitrile], the IC50 against CDK9/CycT1 was 3 nM; on CDK1/CycE1, 234 nM; against CDK2/CycA2, 489 nM; at CDK3/CycE1, 1480 nM; at CDK5/p25NCK, 435 nM.

`CCNc1nc(C#N)cc2cnc(N[C@H]3C[C@H](N)C3)cc12` [Compound 184, 7-(((trans)-3-aminocyclobutyl)amino)-1-(ethylamino)-2,6-naphthyridine-3-carbonitrile]: the IC50 was found to be 1 nM against CDK9/CycT1; 163 nM at CDK1/CycE1; 125 nM against CDK2/CycA2; 990 nM against CDK3/CycE1; 96 nM on CDK5/p25NCK.
